Laboratory results taken from PubChem BioAssay (NCI).
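Results reflect a 48-hour exposure of cells in 96-well plates to compound at five concentrations. TGI is the concentration that stops growth completely.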

Experiments:
Test in all cases: growth of human tumour cells (NCI), 48 h
SF-268 CNS = test system: SF-268 CNS
IGROV1 ovarian = test system: IGROV1 ovarian
UO-31 renal = test system: UO-31 renal
DU-145 prostate = test system: DU-145 prostate
SW-620 colon = test system: SW-620 colon
HT29 colon = test system: HT29 colon
OVCAR-3 ovarian = test system: OVCAR-3 ovarian
MOLT-4 leukemia = test system: MOLT-4 leukemia
OVCAR-4 ovarian = test system: OVCAR-4 ovarian
LOX IMVI melanoma = test system: LOX IMVI melanoma
HOP-62 NSCLC = test system: HOP-62 NSCLC
SNB-19 CNS = test system: SNB-19 CNS
TK-10 renal = test system: TK-10 renal
RXF 393 renal = test system: RXF 393 renal
A498 renal = test system: A498 renal
HCC-2998 colon = test system: HCC-2998 colon
BT-549 breast = test system: BT-549 breast
HOP-92 NSCLC = test system: HOP-92 NSCLC
SK-OV-3 ovarian = test system: SK-OV-3 ovarian
ACHN renal = test system: ACHN renal
SK-MEL-2 melanoma = test system: SK-MEL-2 melanoma
K-562 leukemia = test system: K-562 leukemia
PC-3 prostate = test system: PC-3 prostate
M14 melanoma = test system: M14 melanoma
UACC-62 melanoma = test system: UACC-62 melanoma
A549 NSCLC = test system: A549 NSCLC
RPMI-8226 leukemia = test system: RPMI-8226 leukemia
SF-295 CNS = test system: SF-295 CNS
UACC-257 melanoma = test system: UACC-257 melanoma
OVCAR-8 ovarian = test system: OVCAR-8 ovarian
MDA-MB-435 = test system: MDA-MB-435
CCRF-CEM leukemia = test system: CCRF-CEM leukemia
SF-539 CNS = test system: SF-539 CNS
HCT-116 colon = test system: HCT-116 colon
T-47D breast = test system: T-47D breast
U251 CNS = test system: U251 CNS
NCI/ADR-RES ovarian = test system: NCI/ADR-RES ovarian
EKVX NSCLC = test system: EKVX NSCLC
MCF7 breast = test system: MCF7 breast
COLO 205 colon = test system: COLO 205 colon
HS 578T breast = test system: HS 578T breast
SK-MEL-5 melanoma = test system: SK-MEL-5 melanoma
MDA-MB-231 breast = test system: MDA-MB-231 breast
HCT-15 colon = test system: HCT-15 colon
SNB-75 CNS = test system: SNB-75 CNS
NCI-H460 lung = test system: NCI-H460 lung
NCI-H522 lung = test system: NCI-H522 lung
KM12 colon = test system: KM12 colon
SN12C renal = test system: SN12C renal
SK-MEL-28 melanoma = test system: SK-MEL-28 melanoma
CAKI-1 renal = test system: CAKI-1 renal
OVCAR-5 ovarian = test system: OVCAR-5 ovarian
NCI-H226 lung = test system: NCI-H226 lung
786-0 renal = test system: 786-0 renal
MDA-N = test system: MDA-N
NCI-H23 lung = test system: NCI-H23 lung
MALME-3M melanoma = test system: MALME-3M melanoma
SR leukemia = test system: SR leukemia
HL-60(TB) leukemia = test system: HL-60(TB) leukemia

With `Cn1c2ccccc2c(=O)c2c(O)cc3c(c21)C=CC1(CCCCC1)O3` the TGI (SF-268 CNS) was over 10 µM, the TGI (IGROV1 ovarian) was over 10 µM and the TGI (UO-31 renal) was over 10 µM. It also gave a TGI (DU-145 prostate) of over 10 µM, a TGI (SW-620 colon) of over 10 µM and a TGI (HT29 colon) of over 10 µM. The TGI (OVCAR-3 ovarian) was over 10 µM, the TGI (MOLT-4 leukemia) was over 10 µM and the TGI (OVCAR-4 ovarian) was over 10 µM. For the same compound, the TGI (LOX IMVI melanoma) was over 10 µM, the TGI (HOP-62 NSCLC) was over 10 µM and the TGI (SNB-19 CNS) was over 10 µM. The TGI (TK-10 renal) was over 10 µM, the TGI (RXF 393 renal) was over 10 µM and the TGI (A498 renal) was over 10 µM. It also gave a TGI (HCC-2998 colon) of over 10 µM, a TGI (BT-549 breast) of over 10 µM and a TGI (HOP-92 NSCLC) of over 10 µM. For the same compound, the TGI (SK-OV-3 ovarian) was over 10 µM, the TGI (ACHN renal) was over 10 µM and the TGI (SK-MEL-2 melanoma) was over 10 µM. For the same compound, the TGI (K-562 leukemia) was over 10 µM, the TGI (PC-3 prostate) was over 10 µM and the TGI (M14 melanoma) was over 10 µM. It also gave a TGI (UACC-62 melanoma) of over 10 µM, a TGI (A549 NSCLC) of over 10 µM and a TGI (RPMI-8226 leukemia) of over 10 µM. For the same compound, the TGI (SF-295 CNS) was over 10 µM, the TGI (UACC-257 melanoma) was over 10 µM and the TGI (OVCAR-8 ovarian) was over 10 µM. For the same compound, the TGI (MDA-MB-435) was over 10 µM, the TGI (CCRF-CEM leukemia) was over 10 µM and the TGI (SF-539 CNS) was over 10 µM. For the same compound, the TGI (HCT-116 colon) was over 10 µM, the TGI (T-47D breast) was over 10 µM and the TGI (U251 CNS) was over 10 µM. The TGI (NCI/ADR-RES ovarian) was over 10 µM, the TGI (EKVX NSCLC) was over 10 µM and the TGI (MCF7 breast) was over 10 µM. The TGI (COLO 205 colon) was over 10 µM, the TGI (HS 578T breast) was over 10 µM and the TGI (SK-MEL-5 melanoma) was over 10 µM. The TGI (MDA-MB-231 breast) was over 10 µM, the TGI (HCT-15 colon) was over 10 µM and the TGI (SNB-75 CNS) was over 10 µM. The TGI (NCI-H460 lung) was over 10 µM, the TGI (NCI-H522 lung) was over 10 µM and the TGI (KM12 colon) was over 10 µM. It also gave a TGI (SN12C renal) of over 10 µM, a TGI (SK-MEL-28 melanoma) of over 10 µM and a TGI (CAKI-1 renal) of over 10 µM. The TGI (OVCAR-5 ovarian) was over 10 µM, the TGI (NCI-H226 lung) was over 10 µM and the TGI (786-0 renal) was over 10 µM. The TGI (MDA-N) was over 10 µM, the TGI (NCI-H23 lung) was over 10 µM and the TGI (MALME-3M melanoma) was over 10 µM.

`CC(C(=O)O)C(C)(O)C(=O)O` (configuration not stated) gave a TGI (SF-268 CNS) of over 100 µM, a TGI (IGROV1 ovarian) of over 100 µM and a TGI (UO-31 renal) of over 100 µM. For the same compound, the TGI (DU-145 prostate) was over 100 µM, the TGI (SR leukemia) was over 100 µM and the TGI (SW-620 colon) was over 100 µM. For the same compound, the TGI (HT29 colon) was over 100 µM, the TGI (OVCAR-3 ovarian) was over 100 µM and the TGI (MOLT-4 leukemia) was over 100 µM. For the same compound, the TGI (OVCAR-4 ovarian) was over 100 µM, the TGI (LOX IMVI melanoma) was over 100 µM and the TGI (SNB-19 CNS) was over 100 µM. For the same compound, the TGI (TK-10 renal) was over 100 µM, the TGI (RXF 393 renal) was over 100 µM and the TGI (A498 renal) was over 100 µM. The TGI (HCC-2998 colon) was over 100 µM, the TGI (BT-549 breast) was over 100 µM and the TGI (SK-OV-3 ovarian) was over 100 µM. The TGI (SK-MEL-2 melanoma) was over 100 µM, the TGI (K-562 leukemia) was over 100 µM and the TGI (PC-3 prostate) was over 100 µM. It also gave a TGI (M14 melanoma) of over 100 µM, a TGI (UACC-62 melanoma) of over 100 µM and a TGI (A549 NSCLC) of over 100 µM. The TGI (RPMI-8226 leukemia) was over 100 µM, the TGI (UACC-257 melanoma) was over 100 µM and the TGI (OVCAR-8 ovarian) was over 100 µM. For the same compound, the TGI (MDA-MB-435) was over 100 µM, the TGI (CCRF-CEM leukemia) was over 100 µM and the TGI (SF-539 CNS) was over 100 µM. It also gave a TGI (HCT-116 colon) of over 100 µM, a TGI (T-47D breast) of over 100 µM and a TGI (U251 CNS) of over 100 µM. For the same compound, the TGI (NCI/ADR-RES ovarian) was over 100 µM, the TGI (EKVX NSCLC) was over 100 µM and the TGI (MCF7 breast) was over 100 µM. For the same compound, the TGI (COLO 205 colon) was over 100 µM, the TGI (HS 578T breast) was over 100 µM and the TGI (SK-MEL-5 melanoma) was over 100 µM. It also gave a TGI (MDA-MB-231 breast) of over 100 µM, a TGI (HCT-15 colon) of over 100 µM and a TGI (SNB-75 CNS) of over 100 µM. For the same compound, the TGI (NCI-H460 lung) was over 100 µM, the TGI (HL-60(TB) leukemia) was over 100 µM and the TGI (NCI-H522 lung) was over 100 µM. The TGI (KM12 colon) was over 100 µM, the TGI (SN12C renal) was over 100 µM and the TGI (SK-MEL-28 melanoma) was over 100 µM. For the same compound, the TGI (CAKI-1 renal) was over 100 µM, the TGI (OVCAR-5 ovarian) was over 100 µM and the TGI (NCI-H226 lung) was over 100 µM. The TGI (786-0 renal) was over 100 µM, the TGI (MDA-N) was over 100 µM and the TGI (NCI-H23 lung) was over 100 µM. The TGI (MALME-3M melanoma) was over 100 µM.
